Measured values published in PMC9574886 (Bioorganic & medicinal chemistry, 2022).
Counter-ions that a name gives are not always drawn.

Key:
human eNOS = human eNOS (Homo sapiens, UniProt P29474); assay: NO-hemoglobin; format: biochemical; conditions: hn/he compared to lead 9
[1] = PAMPA-BBB parallel artificial membrane permeability assay; format: in vitro ADME; conditions: 17 h, 200 μM, triplicate, in-house conditions
purified rat nNOS = purified rat nNOS (Rattus norvegicus, UniProt P29476); assay: NO-hemoglobin; format: biochemical; conditions: for drop in potency with rnNOS relative to 12: compared with 12
human nNOS = human nNOS (Homo sapiens, UniProt P29475); assay: NO-hemoglobin; format: biochemical; conditions: for drop in potency with hnNOS relative to 12: compared with 12

Row | SMILES | Determined Pe [1] | drop in potency with hnNOS relative to 12 (human nNOS) [fold] | other results
1 | Cc1cc(N)nc(CCCN(C)C)c1 [Compound 12, 6-(3-(dimethylamino)propyl)-4-methylpyridin-2-amine dihydrochloride] | 2.0 10^−6 cm s^−1 |  | drop in heNOS selectivity as compared to lead 9 (human eNOS): 8 fold
2 | CNCC#Cc1cc(C)cc(N)n1 [Compound 10, 4-methyl-6-(3-(methylamino)prop-1-yn-1-yl)pyridin-2-amine dihydrochloride] |  |  | drop in potency with rnNOS relative to 12 (purified rat nNOS): 3 fold
3 | Cc1cc(N)nc(C#CCN2CCN(C)CC2)c1 [Compound 13, 4-methyl-6-(3-(4-methylpiperazin-1-yl)prop-1-yn-1-yl)pyridin-2-amine dihydrochloride] |  | ~73 | 
4 | Cc1cc(N)nc(C#CCN2CCC(F)(F)CC2)c1 [Compound 19, 6-(3-(4,4-difluoropiperidin-1-yl)prop-1-yn-1-yl)-4-methylpyridin-2-amine] | 21.1 10^−6 cm s^−1 | ~49 | drop in potency with rnNOS relative to 12 (purified rat nNOS): about 61 fold
5 | Cc1cc(N)nc(C#CCN2CC(F)(F)C2)c1 [Compound 17, 6-(3-(3,3-difluoroazetidin-1-yl)prop-1-yn-1-yl)-4-methylpyridin-2-amine dihydrochloride] |  | ~17 | better affinity than 19 with hnNOS (human nNOS; compared with 19): 3 fold; better affinity than 19 with rnNOS (purified rat nNOS; compared with 19): 3 fold
6 | Cc1cc(N)nc(C#CCCN(C)C)c1 [Compound 15, 6-(4-(dimethylamino)but-1-yn-1-yl)-4-methylpyridin-2-amine dihydrochloride] |  | 11 | 
7 | Cc1cc(N)nc(CCCN2CCC(F)(F)CC2)c1 [Compound 20, 6-(3-(4,4-difluoropiperidin-1-yl)propyl)-4-methylpyridin-2-amine dihydrochloride] | 17.3 10^−6 cm s^−1 |  | 
8 | Cc1cc(N)nc(CCCCN(C)C)c1 [Compound 16, 6-(4-(dimethylamino)butyl)-4-methylpyridin-2-amine dihydrochloride] |  | ~2 | 
